Common to all, as to assay: cAMP functional assay (HTRF) in HEK293 cells in presence of 0.1% casein
Common to all, as to format: cell-based

Experiment [1] addresses T1, human GLP-1 receptor (GLP-1R) (Homo sapiens, UniProt P43220).
T1 construct: expressed in transfected cells; host or cells: HEK293
Particulars: HEK293 cells expressing human GLP-1R, geometric mean, read-out: hGLP1R cAMP Rel EC50 nM (SEM, n).

The target in experiment [2] is T2, human glucagon receptor (GcgR) (Homo sapiens, UniProt P47871).
T2 construct: expressed in transfected cells; host or cells: HEK293
T2 sequence (P47871 26-477): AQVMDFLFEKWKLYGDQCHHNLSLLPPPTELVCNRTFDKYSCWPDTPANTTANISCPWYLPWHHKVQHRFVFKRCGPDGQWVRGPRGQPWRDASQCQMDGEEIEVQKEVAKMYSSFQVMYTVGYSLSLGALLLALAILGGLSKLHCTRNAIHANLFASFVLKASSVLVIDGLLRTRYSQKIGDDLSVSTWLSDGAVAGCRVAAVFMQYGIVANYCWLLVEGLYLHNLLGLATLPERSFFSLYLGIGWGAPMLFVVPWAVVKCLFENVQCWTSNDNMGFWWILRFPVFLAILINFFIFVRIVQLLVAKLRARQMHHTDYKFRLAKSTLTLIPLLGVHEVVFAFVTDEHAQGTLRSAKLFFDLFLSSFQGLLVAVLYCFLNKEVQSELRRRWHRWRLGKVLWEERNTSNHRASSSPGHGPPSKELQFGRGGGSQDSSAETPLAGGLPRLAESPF
Particulars: HEK293 cells expressing human GcgR, geometric mean, read-out: hGcgR cAMP Rel EC50 nM (SEM, n).

For experiment [3], the target named is T3, human glucose-dependent insulinotropic peptide receptor (GIPR) (Homo sapiens, UniProt P48546).
T3 construct: expressed in transfected cells; host or cells: HEK293
T3 sequence (P48546 22-466): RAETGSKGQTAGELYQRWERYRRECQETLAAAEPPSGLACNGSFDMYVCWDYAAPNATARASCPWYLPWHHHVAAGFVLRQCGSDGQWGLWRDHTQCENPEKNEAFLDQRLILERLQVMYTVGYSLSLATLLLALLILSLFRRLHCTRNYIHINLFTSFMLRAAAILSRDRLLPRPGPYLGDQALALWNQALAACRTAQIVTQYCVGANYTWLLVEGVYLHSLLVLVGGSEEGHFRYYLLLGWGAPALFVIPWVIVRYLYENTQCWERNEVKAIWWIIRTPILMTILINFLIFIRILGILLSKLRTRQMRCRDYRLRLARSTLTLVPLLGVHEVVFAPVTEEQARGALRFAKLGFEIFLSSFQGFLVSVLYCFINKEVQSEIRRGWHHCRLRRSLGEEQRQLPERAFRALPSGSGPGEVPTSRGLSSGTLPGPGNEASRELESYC
Particulars: HEK293 cells expressing human GIPR, geometric mean, read-out: hGIPR cAMP Rel EC50 nM (SEM, n).

*1 amine or outer side, *2 acyl side, *3 side chain or, on linkers, in order; H or OH if unused. Where a SMILES comes first, the peptide text is derived from it. Side-chain parts run from the residue outwards. [ ]: non-standard residue; d: D form. The star is where a group is joined. C20 diacid = O=C(O)CCCCCCCCCCCCCCCCCCC(=O)*; αMePhe(2-F) = C[C@](N)(Cc1ccccc1F)C(=O)O; γGlu = O=C(O)[C@H](CCC(=O)[*:2])N[*:1]; 4Pal = N[C@@H](Cc1ccncc1)C(=O)O; αMeL = CC(C)C[C@](C)(N)C(=O)O; AEEA = NCCOCCOCC(=O)O; Aib = CC(C)(N)C(=O)O

Here are results for two molecules from patent US12723063B2, “GIPR-agonist compounds” (Eli Lilly and Company, priority 2019, dated 2026).

T1 sequence (P43220 24-463): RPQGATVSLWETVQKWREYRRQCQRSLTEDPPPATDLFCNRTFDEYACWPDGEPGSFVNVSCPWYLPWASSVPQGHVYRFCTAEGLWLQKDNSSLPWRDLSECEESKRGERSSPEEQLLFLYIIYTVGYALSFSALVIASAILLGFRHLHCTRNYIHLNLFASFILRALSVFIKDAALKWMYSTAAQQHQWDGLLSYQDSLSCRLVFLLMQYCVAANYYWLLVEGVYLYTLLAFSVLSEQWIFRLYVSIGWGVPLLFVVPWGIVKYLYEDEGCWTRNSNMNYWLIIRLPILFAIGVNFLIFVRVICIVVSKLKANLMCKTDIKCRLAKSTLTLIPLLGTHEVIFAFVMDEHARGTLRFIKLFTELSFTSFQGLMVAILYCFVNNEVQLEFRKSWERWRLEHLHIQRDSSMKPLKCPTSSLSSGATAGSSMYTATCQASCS

Usually EC50 stands for the concentration that produces a half-maximal response. As to `CC[C@H](C)[C@H](NC(=O)[C@H](CO)NC(=O)[C@H](Cc1ccc(O)cc1)NC(=O)[C@H](CC(=O)O)NC(=O)[C@H](CO)NC(=O)[C@@H](NC(=O)[C@](C)(Cc1ccccc1F)NC(=O)[C@@H](NC(=O)CNC(=O)[C@H](CCC(=O)O)NC(=O)C(C)(C)NC(=O)[C@@H](N)Cc1ccc(O)cc1)[C@@H](C)O)[C@@H](C)CC)C(=O)N[C@@](C)(CC(C)C)C(=O)N[C@@H](CC(C)C)C(=O)N[C@@H](CC(=O)O)C(=O)N[C@@H](CCCCN)C(=O)N[C@@H](CCCCNC(=O)COCCOCCNC(=O)COCCOCCNC(=O)CC[C@H](NC(=O)CCCCCCCCCCCCCCCCCCC(=O)O)C(=O)O)C(=O)N[C@@H](Cc1c[nH]cn1)C(=O)N[C@@H](CCC(N)=O)C(=O)NC(C)(C)C(=O)N[C@@H](CC(=O)O)C(=O)N[C@@H](Cc1ccccc1)C(=O)N[C@H](C(=O)N[C@@H](CCC(=O)O)C(=O)N[C@@H](Cc1ccncc1)C(=O)N[C@@H](CC(C)C)C(=O)N[C@@H](CC(C)C)C(=O)N[C@@H](C)C(=O)NCC(=O)NCC(=O)N1CCC[C@H]1C(=O)N[C@@H](CO)C(=O)N[C@@H](CO)C(=O)NCC(=O)N[C@@H](C)C(=O)N1CCC[C@H]1C(=O)N1CCC[C@H]1C(=O)N1CCC[C@H]1C(=O)N[C@@H](CO)C(N)=O)C(C)C` [Example 51] (H-Y[Aib]EGT[αMePhe(2-F)]ISDYSI[αMeL]LDKK([AEEA-AEEA-γGlu-C20 diacid])HQ[Aib]DFVE[4Pal]LLAGGPSSGAPPPS-NH2), the EC50 is 24.7 nM in experiment [1], 308 nM in experiment [2] and 0.0166 nM in experiment [3].

With `CC[C@H](C)[C@H](NC(=O)[C@H](Cc1ccccc1)NC(=O)[C@@H](NC(=O)CNC(=O)[C@H](CCC(=O)O)NC(=O)C(C)(C)NC(=O)[C@@H](N)Cc1ccc(O)cc1)[C@@H](C)O)C(=O)N[C@@H](CO)C(=O)N[C@@H](CC(=O)O)C(=O)N[C@@H](Cc1ccc(O)cc1)C(=O)N[C@@H](CO)C(=O)N[C@H](C(=O)N[C@@](C)(CC(C)C)C(=O)N[C@@H](CC(C)C)C(=O)N[C@@H](CC(=O)O)C(=O)N[C@@H](CCCCN)C(=O)N[C@@H](CCCCNC(=O)COCCOCCNC(=O)COCCOCCNC(=O)CC[C@H](NC(=O)CCCCCCCCCCCCCCCCCCC(=O)O)C(=O)O)C(=O)N[C@@H](Cc1c[nH]cn1)C(=O)N[C@@H](CCC(N)=O)C(=O)NC(C)(C)C(=O)N[C@@H](CC(=O)O)C(=O)N[C@@H](Cc1ccccc1)C(=O)N[C@H](C(=O)N[C@@H](CCC(=O)O)C(=O)N[C@@H](Cc1ccc(O)cc1)C(=O)N[C@@H](CC(C)C)C(=O)N[C@@H](CC(C)C)C(=O)N[C@@H](CCC(=O)O)C(=O)NCC(=O)NCC(=O)N1CCC[C@H]1C(=O)N[C@@H](CO)C(=O)N[C@@H](CO)C(=O)NCC(=O)N[C@@H](C)C(=O)N1CCC[C@H]1C(=O)N1CCC[C@H]1C(=O)N1CCC[C@H]1C(=O)N[C@@H](CO)C(N)=O)C(C)C)[C@@H](C)CC` [Example 69] (H-Y[Aib]EGTFISDYSI[αMeL]LDKK([AEEA-AEEA-γGlu-C20 diacid])HQ[Aib]DFVEYLLEGGPSSGAPPPS-NH2), the EC50 in experiment [1] is over 5000 nM; in experiment [2], 803 nM; in experiment [3], 0.0302 nM.
